From the supplement of paper PMC11451515

System: SEM cells
Experiment: cell viability relative to DMSO control; higher = less cytotoxic
Conditions: 48 h
How it was run: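 Viability was expressed as a per-plate percentage of DMSO wells, with cell-free wells as background. Leukemia cells (NOMO1 or SEM at 500 cells/well, P12-Ichikawa at 1000 cells/well) were adapted for at least four passages in each medium and seeded in 1536-well plates (5 μl). Library compounds in DMSO were pin-dosed over an 11-point threefold series from 47 μM to 0.79 nM, and CellTiter-Glo One luminescence was read after 48 h at 37°C.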

[1] = HPLM + 10% dialyzed FBS, 0.000781 µM
[2] = HPLM + 10% dialyzed FBS, 0.00234 µM
[3] = HPLM + 10% dialyzed FBS, 0.00702 µM
[4] = HPLM + 10% dialyzed FBS, 0.0211 µM
[5] = HPLM + 10% dialyzed FBS, 0.0632 µM
[6] = HPLM + 10% dialyzed FBS, 0.19 µM
[7] = HPLM + 10% dialyzed FBS, 0.569 µM
[8] = HPLM + 10% dialyzed FBS, 1.71 µM
[9] = HPLM + 10% dialyzed FBS, 5.12 µM
[10] = HPLM + 10% dialyzed FBS, 15.4 µM
[11] = HPLM + 10% dialyzed FBS, 46.1 µM
[12] = RPMI 5 mM glucose + 10% FBS, 0.000781 µM
[13] = RPMI 5 mM glucose + 10% FBS, 0.00234 µM
[14] = RPMI 5 mM glucose + 10% FBS, 0.00702 µM
[15] = RPMI 5 mM glucose + 10% FBS, 0.0211 µM
[16] = RPMI 5 mM glucose + 10% FBS, 0.0632 µM
[17] = RPMI 5 mM glucose + 10% FBS, 0.19 µM
[18] = RPMI 5 mM glucose + 10% FBS, 0.569 µM
[19] = RPMI 5 mM glucose + 10% FBS, 1.71 µM
[20] = RPMI 5 mM glucose + 10% FBS, 5.12 µM
[21] = RPMI 5 mM glucose + 10% FBS, 15.4 µM
[22] = RPMI 5 mM glucose + 10% FBS, 46.1 µM
[23] = RPMI 5 mM glucose + 10% dialyzed FBS, 0.000781 µM
[24] = RPMI 5 mM glucose + 10% dialyzed FBS, 0.00234 µM
[25] = RPMI 5 mM glucose + 10% dialyzed FBS, 0.00702 µM
[26] = RPMI 5 mM glucose + 10% dialyzed FBS, 0.0211 µM
[27] = RPMI 5 mM glucose + 10% dialyzed FBS, 0.0632 µM
[28] = RPMI 5 mM glucose + 10% dialyzed FBS, 0.19 µM
[29] = RPMI 5 mM glucose + 10% dialyzed FBS, 0.569 µM
[30] = RPMI 5 mM glucose + 10% dialyzed FBS, 1.71 µM
[31] = RPMI 5 mM glucose + 10% dialyzed FBS, 5.12 µM
[32] = RPMI 5 mM glucose + 10% dialyzed FBS, 15.4 µM
[33] = RPMI 5 mM glucose + 10% dialyzed FBS, 46.1 µM

Row | SMILES | cell viability [1] [%] | cell viability [2] [%] | cell viability [3] [%] | cell viability [4] [%] | cell viability [5] [%] | cell viability [6] [%] | cell viability [7] [%] | cell viability [8] [%] | cell viability [9] [%] | cell viability [10] [%] | cell viability [11] [%] | cell viability [12] [%] | cell viability [13] [%] | cell viability [14] [%] | cell viability [15] [%] | cell viability [16] [%] | cell viability [17] [%] | cell viability [18] [%] | cell viability [19] [%] | cell viability [20] [%] | cell viability [21] [%] | cell viability [22] [%] | cell viability [23] [%] | cell viability [24] [%] | cell viability [25] [%] | cell viability [26] [%] | cell viability [27] [%] | cell viability [28] [%] | cell viability [29] [%] | cell viability [30] [%] | cell viability [31] [%] | cell viability [32] [%] | cell viability [33] [%]
1 | CC(C)C[C@H](NC(=O)[C@@H](NC(=O)c1cccc(-c2ccccc2)n1)[C@@H](C)O)B(O)O | 98.1 | 110 | 108 | 31.3 | 9.24 | 8.75 | 8.47 | 8.47 | 7.07 | 4.73 | 3.46 | 93 | 107 | 99 | 18.2 | 9.27 | 9.18 | 8.81 | 8.15 | 6.37 | 4.03 | 3.46 | 87.3 | 100 | 95.9 | 28.4 | 9.88 | 9.98 | 9.77 | 9.35 | 6.09 | 3.83 | 3.48
2 | C\C1=C\C(=O)C2=C(C=CC=C2)C1=O | 95.9 | 110 | 102 | 109 | 126 | 123 | 106 | 114 | 111 | 96.1 | 80.4 | 104 | 101 | 113 | 111 | 113 | 106 | 101 | 89.2 | 95.3 | 95.9 | 59.9 | 94.7 | 102 | 114 | 114 | 112 | 111 | 117 | 111 | 84.3 | 71.3 | 50.6
3 | NC1=NC=C(C=C1)C2=CC=C3N=CC\4=C(N(C(=O)\C=C4)C5=CC(=CC=C5)C(F)(F)F)C3=C2 | 67.9 | 65.8 | 53.2 | 46.5 | 37.5 | 24.7 | 28.6 | 24.3 | 13.3 | 8.87 | 14.3 | 84.7 | 81.8 | 74.2 | 57.2 | 42.2 | 27.9 | 21.8 | 24.8 | 8.57 | 13.8 | 7.9 | 70.5 | 66.7 | 46.2 | 44.4 | 34.8 | 23.6 | 21.6 | 22.5 | 5.98 | 5.05 | 8.96
4 | C[C@@H]1CN[C@H]2[C@@H](C)[C@@]\3(CC[C@H]\4[C@@H]5C/C=C6/C[C@@H](O)CC[C@]6(C)[C@H]5CC4=C3C)O[C@@H]2C1 | 78.3 | 122 | 119 | 119 | 129 | 118 | 127 | 114 | 114 | 98.4 | 84.6 | 77.7 | 119 | 132 | 141 | 118 | 115 | 117 | 120 | 105 | 109 | 93.5 | – | – | – | – | – | – | – | – | – | – | –
5 | Cc1c(Cn2c(C)nc3c(C(=O)O)cc(N4CCOCC4)cc32)cccc1C(F)(F)F | 84.5 | 101 | 109 | 111 | 101 | 97.1 | 115 | 109 | 103 | 117 | 103 | 93.2 | 115 | 102 | 106 | 103 | 112 | 119 | 114 | 107 | 89.1 | 88.5 | 94.1 | 105 | 100 | 109 | 112 | 95.5 | 103 | 95.5 | 90.1 | 92.3 | 79.8
6 | CC(C)Nc1cc(C(F)(F)F)cc2nc(NC(=O)c3cccnc3)nn12 | 113 | 105 | 101 | 118 | 119 | 96.6 | 102 | 42.3 | 26.5 | 13.7 | 5.96 | 113 | 112 | 95.3 | 110 | 107 | 89.2 | 94.2 | 18 | 15.8 | 8.3 | 2.38 | 126 | 98.6 | 116 | 113 | 102 | 94 | 101 | 23.2 | 16.3 | 11.1 | 4.75
7 | CC[C@H]1/C=C\C=C/C[C@@H](C)[C@H](O)[C@@](C)(O)C(=O)[C@@H](C)[C@H](O)[C@@H](C)C(=O)[C@@H](C)[C@H](O)[C@@H](C)/C=C/C(=O)O[C@@H]2[C@H](C)[C@H](CC1)O[C@]1(CC[C@H](C)[C@H](C[C@@H](C)O)O1)[C@H]2C | 78.7 | 94.1 | 105 | 84.3 | 86.4 | 98.6 | 95.5 | 63.4 | 40.9 | 56.5 | 7.57 | 81.1 | 93.9 | 92.5 | 81.2 | 90.3 | 105 | 97.7 | 58.2 | 28.8 | 34.6 | 7.26 | 90.9 | 97 | 89 | 97.4 | 85.8 | 94.2 | 100 | 54.7 | 43.2 | 36.4 | 8.78
